“Also recorded” adds a separate entry of the source.
Assays:
Format in all cases: cell-based
[1] = test system: P-selectin (CD62P) on human platelet surface; assay: Flow cytometry, P-selectin (CD62P) exposure, α-granule release; settings: 0.025 U/ml thrombin, 10 μM STO-609
Description: Flow cytometric analysis was performed on a FACScan (Becton Dickinson). Washed human platelets (2·10^5 platelets/μl) were pre-incubated with DMSO/STO-609 for 2 min and then treated with or without thrombin (0.025 U/ml) in the presence of excessive amounts of FITC-conjugated monoclonal antibody (anti-CD62P (BD Biosciences) or PAC-1 (BD Biosciences)) at room temperature. The samples were then fixed at 4° C. for 30 min with 2% paraformaldehyde. The levels of P-selectin expression and PAC1 binding were expressed as the percentages of cells positive for anti-CD62P and PAC-1, respectively. The negative cut-off for each antibody was set using resting platelets that gave less than 5% of cells positive for binding of anti-CD62P or PAC-1. In addition, the effect of STO-609 on α-granule release was determined by measuring the exposure on platelet surface of P-selectin (CD62P).

[2] = test system: cofilin Ser3 phosphorylation; assay: Western blot of cofilin Ser3 phosphorylation in human platelets; settings: 0.1 U/ml thrombin, 10 μM STO-609, 10 min after thrombin exposure
Description: (§1) Washed human platelets (used in in vitro studies). Platelets were obtained from adult healthy volunteers in accordance with the Ethics Commission of our institution (Commission d'Ethique Biomédicale Hospitalo-Facultaire, Université catholique de Louvain). Whole blood was collected with butterfly needle 21G into Sodium Citrate 1:10 solution (S-monovette). Platelet-rich plasma (PRP) was obtained by 15 min centrifugation at 330 g. The platelets pellet was then washed in Tyrode modified buffer (135 mM NaCl, 12 mM NaHCO3, 1 mM Sodium Citrate, 2.9 mM KCl, 0.3 mM Na2HPO4, 1 mM MgCl2, 5 mM D-glucose, 10 mM Hepes, 0.35% bovine serum albumin (BSA), pH 7.4 at 37° C.) and resuspended to a density of 2.5 10^5 platelets/μl for the measurement of intracellular Ca^2+ or platelet aggregation. […]
(§2) Proteins were separated as described (Miranda et al. 2010. J Clin Invest 103(6): 879-887). […] Bound antibodies were detected by enhanced chemiluminescence (Thermofisher). […] Band intensities were quantified by scanning and processing image intensities with the program ImageJ (1.33 for Mac OS X). The quantification of immunoblots presented in results was obtained after normalization using the internal loading control.

[3] = test system: Ser79 acetyl-CoA carboxylase (ACC) phosphorylation in human platelets; assay: Western blot of phosphorylated (Ser79) ACC in human platelets; settings: 10 μM STO-609, 0.1 U/ml thrombin
[4] = test system: AMPK Thr172 phosphorylation in human platelets; assay: Western blot of AMPK Thr172 phosphorylation in human platelets; settings: 10 μM STO-609, thrombin-treated human platelets (not shown)
Description: Washed human platelets (used in in vitro studies). Platelets were obtained from adult healthy volunteers in accordance with the Ethics Commission of our institution (Commission d'Ethique Biomédicale Hospitalo-Facultaire, Université catholique de Louvain). Whole blood was collected with butterfly needle 21G into Sodium Citrate 1:10 solution (S-monovette). Platelet-rich plasma (PRP) was obtained by 15 min centrifugation at 330 g. The platelets pellet was then washed in Tyrode modified buffer (135 mM NaCl, 12 mM NaHCO3, 1 mM Sodium Citrate, 2.9 mM KCl, 0.3 mM Na2HPO4, 1 mM MgCl2, 5 mM D-glucose, 10 mM Hepes, 0.35% bovine serum albumin (BSA), pH 7.4 at 37° C.) and resuspended to a density of 2.5 10^5 platelets/μl for the measurement of intracellular Ca^2+ or platelet aggregation. For Western Blot analysis, PRP with eptifibatide 4 μg/ml (Integriline, GlaxoSmithKline) and ectonucleotidase apyrase (grade I) 0.5 U/ml was layered over a density barrier of iodixanol (Optiprep®) that allowed the erythrocytes and leucocytes to pellet during centrifugation at 350 g for 15 min. […] Bound antibodies were detected by enhanced chemiluminescence (Thermofisher). […] Band intensities were quantified by scanning and processing image intensities with the program ImageJ (1.33 for Mac OS X). The quantification of immunoblots presented in results was obtained after normalization using the internal loading control.

[5] = test system: VASP Thr 278 phosphorylation; assay: Western blot of VASP Thr278 phosphorylation in human platelets; settings: 0.1 U/ml thrombin, pre-incubation with STO-609
Description: as §1, §2

SMILES: O=C(O)c1ccc2c3c1cccc3c(=O)n1c3ccccc3nc21 [STO-609]
- CD62P detection per platelet in response to thrombin (α-granule release) [1]: significantly inhibited; also recorded: prevents
- thrombin-induced cofilin phosphorylation, effect of pre-incubation [2]: significantly decreased; also recorded: prevents
- AMPK activation, as judged by phosphorylation of downstream Ser79 acetyl-CoA carboxylase (ACC) [3]: markedly reduced
- AMPK activation, as judged by phosphorylation of AMPK Thr172 [4]: markedly reduced
- thrombin-induced VASP phosphorylation on Thr 278, effect of pre-incubation [5]: prevents
